Measured values: patent US20140099354A1, “BIOPASSIVATING MEMBRANE STABILIZATION BY MEANS OF NITROCARBOXYLIC ACID-CONTAINING PHOSPHOLIPIDS IN PREPARATIONS AND COATINGS” (priority 2011, published 2014)
pEC50: −log10 of the molar value.

Key:
[1] = test system: HeLa, HUVEC and L929 fibroblast; assay: cells; assay type: cell-based; conditions: for viability as quantified by the MTT assay: tested concentrations 10 μmol to 1 mmol, EC50 could not be calculated
Method: (§1) Physiologically occurring phospholipids can be taken up by virtually all cell lines in large quantities. It is known that phospholipids that contain non-physiologically occurring fatty acid residues can cause cell lyses or death. Three cell lines (HeLa, HUVEC and L929 fibroblast) were cultured in a suitable culture medium of 5% FCS at 37° C. and 5% CO2 concentrations to a subconfluent concentration of 1.5×10^5 cells.
SOPC, DOPC, POPC, ONOPC, PNLPC, and the free fatty acids of OA, LA, NOOA, and NOLA were dissolved in 0.5% DMSO. […] Cell cultures were incubated for 24 h and 48 h. Thereafter, the culture medium was removed and the cells washed twice. Following this, cells suspensions were given in four vials to perform the following analysis:
For the determination of viability, phenol red was added to the suspended cells. After 4 h, the medium was renewed and 10 μl of the MTT solution was added. The cells were cultured for 4 hours, and then a 10% SDS solution was pipetted. After 24 h, absorption of formazan crystals was measured at 500 nm using a power wave X (bio-tek instruments, Inc., USA). For the quantitative comparison of toxicity, the EC50 was determined.

[2] = test system: HeLa, HUVEC and L929 fibroblast; assay: Volumetric measurement of cells (Coulter counter); assay type: cell-based; conditions: time-dependent increase after incubation
Method: as §1
(§2) SOPC, DOPC, POPC, ONOPC, PNLPC, and the free fatty acids of OA, LA, NOOA, and NOLA were dissolved in 0.5% DMSO. Experiments were performed also with nitro-carboxylic acid-containing phospholipids according to examples N15-N20, G, O3, O5, P2, P5, P8, P9, P11 and Q. PL prepared as aqueous suspensions were added the culture flasks in order to achieve PL concentrations in the culture medium from 10 μmol to 1 mmol. Cell cultures were incubated for 24 h and 48 h. Thereafter, the culture medium was removed and the cells washed twice. Following this, cells suspensions were given in four vials to perform the following analysis:
Volumetric measurement of cells was done in a Histopenz (Sigma) solution with an effective NaCl concentration of 0.9% (approximately 290 mOsm) heated to 37° C. in which the cells were suspended; thereafter the solution was sonified for 2 minutes. Measurements were done using a Coulter counter Z2.

[3] = test system: HeLa, HUVEC and L929 fibroblast; assay: Cell viability with the live/dead assay; assay type: cell-based
Method: as §1, §2
Studies of cell viability were carried out with the live/dead assay (Molecular Probes). For this purpose, the cells were washed twice with PBS solution and then seeded into a culture medium. Incubation with the staining solution (in 0.1% DMSO) was carried out over 30 minutes in the dark. The viability analyses were performed using fluorescence microscopy.

[4] = test system: Cardiac muscle cells derived from neonatal rat heart; assay: Hypoxia of cardiac muscle cells (viability, mitochondrial NAD+); assay type: cell-based; parameters: loss of viability of heart muscle cells after hypoxia: concentration or dose not given beside the values; conditions: for mitochondrial NAD+ content: hypoxia, baseline 5
Method: Cardiac muscle cells derived from neonatal rat heart (Nitobe J, et al, Reactive oxygene species regulate FLICE inhibitory protein and susceptibility to FAS-mediated apoptosis in cardiac myocytes. Cardiovasc RES 2003, 119-28). The heart muscle cells were cultured in Dulbecco/Eagle medium (DMEM) with 10% FCS added under standard conditions for two days. Incubation with the natural and nitrated phospholipids, as well as the hypoxia experiments were carried out as described above. Incubated cells were grown in culture medium under standard conditions for 24 hours. This is followed by a vitality staining as described above. […] The frozen cells were thawed up to -4° C. and homogenized for subsequent NAD^+ analyses. By means of differential centrifuge, pellets containing mitochondria were separated (Di Lisa, et al, 1993; Am. J. Physiol. 264, […]-[…]). The NAD^+ content was determined by fluoroscopy, and normalized to the protein content (Veloso, D., and […]., 1974;) Anal. Biochem., 449-450).

[5] = test system: Heart muscle cells from rabbit hearts; assay: Cytosolic Ca2+ concentration in heart muscle cells (fluo-4 fluorescence); assay type: cell-based
Method: Heart muscle cells were taken from rabbit hearts according to a method described elsewhere (Shannon T R, Ginsburg K S, Bers D M. Quantitative assessment of the SRCa^2+ leak-load relationship. Circ Res. 2002; 91:594-600). The prepared cells were cultured for 72 hours.
The cytosolic Ca^2+ concentrations were determined with fluo-4 fluorescence. Therefore the cells were incubated with 10 μmol fluo-4 AM (1%) for 30 minutes and washed thereafter three times with PBS. The cells were stimulated in a Tryode solution on a platinum electrode with a frequency of 0.5 Hz over 20 cycles. Then the ambient medium was changed and an electrolyte-free colloidal solution was added. Determination of the Ca concentration was performed after each series of stimulation over 20 cycles. Calcium content was estimated by the use of confocal laser scanning microscopy (Olympus). At least 10 cells per experiment were evaluated in a post-systolic interval of 1000 ms. The measurements were repeated at least three times. β-adrenergic stimulation was performed with 250 nmol/L isoproterenol, which was given to the medium.

TRPV1, 2 and 4, TRPA1 = assay: Inducible ion current of TRP receptors in Xenopus oocytes (voltage clamp); assay type: cell-based, rat; conditions: 50 mmol/l, 10 and 60 minutes
Method: An established in-vitro model of Xenopus oocytes (Dascal N, 1987 The use of Xenopus oocytes. CRC critical reviews in biochemistry 22, 317-387) was used to study the influence of incubation with PL on ion channels regulated by membrane receptors. Defolliculized oocytes were transfected with cRNA (rat) of TRPV1, 2 and 4, as well as of TRPA1, stored in tissue culture plates and incubated in culture medium (ND 96) at 15° C. under constant motion in the incubator for 7 to 10 days.
Induced leakage currents through activation of the TRP receptors was determined by means of double electrode voltage-clamp technique (Ahern G P, Brooks I M, Miyares R L &Wang X B, 2005, Extracellular cations sensitize and gate capsaicin receptor TRPV1 modulating pain signalling. J Neurosci 25, 5109-5116). Ooocytes were probed with borosilicate glass capillaries (Clark) and connected to a feedback amplifier (Gene clamp Amplifier, Axon instruments). The membrane potential of oocytes was clamped to −60 or −90 mV. The presence of a directive […] current was compared to non-transfected controls. The investigations were performed in a miniature organ bath in calcium-free buffered (Hepes, pH 7.3) NaCl solution. The TRPV1 receptor excitation was initiated by rapidly changing of the bath solution against a capsaicin solution (10 μmol). Results of non-pretreated oocytes were used for normative comparison of subsequent measurements of incubatesd cells. Investigations with incubated cells were carried out in the same way for oocytes transfected with the TRPV2, and TRPV4 and TRPA1 receptors, wherein the receptor agonists cannabidiol (10 μmol) and 4α-PDD (4α-phorbol 12,13-didecanoate, 50 μmol) and innamaldehyde (50 μmol) were used instead of capsaicin.

[6] = Tissue response to coated silicone implants in vivo after bleomycin; parameters: species or system Wistar rats; conditions: silicone cushions, subcutaneous, 7 to 90 days
Method: Induction of fibrotic tissue production by connective tissue activation as a consequence of implantation of foreign material was examined in an in-vivo animal model. As implant materials, sterile silicone cushions having a diameter of 1 cm were used.
In male Wistar rats (190-240 g) that were fed and housed under identical conditions for one week, general anaesthesia was performed by intramuscular injection of 0.008 mL/100 g ketamine and 0.004 mL/100 g xylocaln chloride 2%. Then the back of the animals was shaved, sterilized and infiltrated with xylocalne chloride. A paravertebral incision was made on both sides with a length of 1.5 cm followed by preparation of the subcutaneous tissue, so that on both sides approx. 2×2 cm cavities were preformed. Hemostasis was achieved by cauterization, if necessary. Then balls of cotton saturated with Bleomycin (cell-pharm GmbH, Hannover, Germany: 1% in 0.9% NaCl solution) were inserted into the cavities for 3 minutes and then removed. Without rinsing the cavities, the implants coated with a nitrated phospholipid were inserted into the cavity on the left side and the implants coated with natural phospholipid into the cavity on the right side. Thereafter, a layer by layer wound closure was performed and a sterile adhesive bandage was applied.
The animals were kept according to standard conditions for 7, 14, 30, 60 and 90 days. At any study time endpoint, two animals were euthanized. After death the well visible and palpable implants were removed using en-block resection technique. The resected specimens were fixed and embedded in paraffin. Then they were cut in half and the liquid silicone was removed. The specimens were embedded again and cut into thin slices which were stained with H & E and Sirius red, and evaluated by light microscopy. Evaluation was done according to the following criteria:
A1: none; A2: occasional monocytic cells or lymphocytes; A3: moderate numbers or groups of monocytic cells or lymphocytes; A4: dense infiltration of monocytes, eosinophils, or giant cells.
B1: none; B2: collagen-rich layer around the implant; B3: thick (>1 mm) and dense collagen-rich tissue formation around the implant.
In every 10th serial section 10 fields of view uniformly distributed over the circumference of the implant were evaluated and the herein predominant expression was assigned to an event table. In total, 200 fields of view were analyzed per implant

ovarian tissue strips [7] = assay: Cryopreservation of ovarian tissue strips: 17 β-estradiol and progesterone (radio-immuno assay); assay type: cell-based, sheep; conditions: after cryopreservation and culture
Method: (§3) Ovar ectomy was performed in female sheep; resected tissues were cut into 60 ovarian tissue strips. The ovarian strips were either cultured directly (n=4) or prepared with a usual solution for vitrification (VS group; Vitrification Kit, Sage, USA) or incubated with nitrated PLs (NPL group). For this purpose, the tissue strips were bathed in an equibrilation solution (ART-8025-A) which consisted of MOPS-buffered amino acids and gentamicin sulfate (10 mg/l), and 7.5% (v/v) of each DMSO and ethylene glycol and 12 mg/ml human serum albumin for 30 minutes. Thereafter the strips of the VS group were placed in the vitrification solution (ART-8025-B), which is a MOPS-buffered solution containing amino acids and gentamicin sulfate, that contain 15% (v/v) each DMSO and ethylenglycol, 12 mg/ml human albumin and 0.6 M sucrose. The strips of the NPL group were placed in a solution containing 25% (v/v) nitrated PL SNOPC or PNLPC in a PBS-buffered 1% DMSO solution containing 5% human albumin for 60 minutes. The treated tissue strips were then immersed into liquid nitrogen and kept here for 14 days. Then removal and warming of the tissue pieces was performed in AIM-V medium (Gibco, Invitrogen) in a sterile culture dish, first up to 5° C. within 20 minutes, then heated further in a water bath up to 37° C., within the following 60 minutes. The culture medium was replaced and specimens cultured for 14 days. After this, the tissue pieces were fixed, embedded in paraffin and cut, followed by histological examination. […] The total number of intact follicles in the control group was taken as a reference to the number of follicles in the cryopreserved groups.
(§4) The culture medium has been exchanged by every 2nd day; samples for hormone analysis were taken and frozen at that time. Determination of 17 β-estradiol and progesterone were performed with a radio-immuno assay (diagnostic systems laboratories, USA).

ovarian tissue strips [8] = assay: Cryopreservation of ovarian tissue strips: intact follicles; conditions: liquid nitrogen 14 days, cultured 14 days
Method: as §3, §4

cortical neurons = assay: Hypoxia and reperfusion of cortical neurons (viability, LDH)
Method: To determine whether the membrane-stabilizing properties of nitrated phospholipids can lead to attenuation of effects due to an ischemic event or the re-perfusion damage, cortical neurons and cardiac myocytes were investigated.
Freshly prepared cortex tissue was separated with Papain and tissue suspensions were cultured in culture vessels (Prim ARA; BD Biosciences, USA) with Neurobasal A/B27 medium (Invitrogen) for 10-12 days. Cell suspensions were divided, and replenished with suspensions of the natural phospholipids SOPC and PLPC, as well as the analogue phospholipids with nitration of unsaturated fatty acids (1-stearoyl-2-(9-nitrooleoyl)-sn-PC and 1-palmitoyl-2-(9-nitrolinoleoyl)-sn-PC) at concentrations of 10 to 50 μmol/l in NaCl (0.9%) were added. […] After 4 hours, the cells were washed three times with buffered saline and buffered NaCl solution with the addition of MgCl2 and CaCl2 in an anaerobic atmosphere (85% N2, 5% O2, 10% CO2; at 35° C.) for 10 and 30 minutes. Then, the cells were washed once and grown in culture medium under aerobic conditions for 24 hours. […] Cells were stained with annexin V-FITC and propidium iodide (Molecular probes, USA). The vital and necrotic cells were measured by flow cytometry (FACSCalibur, Becton & Dickinson). The volume of culture medium was determined and an aliquot was taken for determination of the LDH (lactate dehydrogenase) concentration.

[9] = Transisomerization of unsaturated fatty acids in coatings on balloon catheters (FTIR); assay type: physicochemical
From the text: The natural phospholipids POPC and SLPE, as well as the analogous nitrated phospholipids as shown in example C(PNOPC) and […]), as well as the phospholipids according to examples […], and S as a mono substance and as a combination of the native phospholipids and the corresponding nitro-carboxylic acid (s)-containing phospholipids mixed in a ratio of 1:1 were used for this investigation. Balloon catheters were coated by means of the Langmuir-Schaefer procedure where the balloon segment was aligned longitudinally and coaxial to the solution surface, dipping into the liquid for approx. 1 mm over the entire length. Then the catheter was slowly rotated around its axis 5 times. […] The solution was cooled and given to the coating solution then. In case of incomplete dissolution of the phospholipids or if they separated when cooled, DMSO was added at a concentration of up to 20 vol.-%, preferably up to 10 vol.-%. After coating, the catheters were vacuum dried for 8 hours in order to remove residual solvent. The abrasion or loss of coating layers was determined by weighing the catheter before and after coating as well as after the mechanical stability test in the tubing system as described above using a high precision balance. In order to examine the long-term stability of the coating, catheters coated with phospholipids were sealed with polyethylene glycol 1000 (Roth, Germany). For that purpose PEG 1000 was melted and mixed with a 10% ethanol solution at 50° C. A portion of the phospholipid-coated balloon catheter was coated by means of dip-coating in this PEG solution at 50° C., and dried thereafter for 8 hours. Stability of cis-conformity of unsaturated fatty acids of the phospholipids investigated was determined after heat treatment at 60° C. for three hours in a heating cabinet. After 24 hours and after 2 months the phospholipids coated on the balloon surface were detached and analyzed. Detachment was carried out in 50 ml of a chloroform:methanol mixture (3:1, v: v). A 10 μl aliquot was used for a FTIR spectroscopy. For this purpose the samples were dropped on a ZnSe ATR crystal and then the solvent was evaporated. Degree of transisomerization was determined using the integral of intensity of proton resonance in comparison to that measured from a cis configuration of the reference substances. Measurements were performed 24 hours after coating, heat treatment and after 2 months of storage at 25° C. under sterile room air conditions.

sciatic nerve = assay: Viability of cryopreserved nerve grafts (Annexin-V staining, FACS); assay type: cell-based, rats; conditions: 100 mmolar solution 1 hour; −30° C. 72 hours

Which “viability as quantified by the MTT assay” value [1] does the source give for CCCCCCCC/C=C\CCCCCCCC(=O)OC[C@H](COP(=O)([O-])OCC[N+](C)(C)C)OC(=O)CCCCCCC/C=C\CCCCCCCC [DOPC, 1,2-dioleoyl-sn-glycero-3-PC] here?
Its value is “only slightly decreased”.

What about the “cell volume (increase in size to)” value [2] of the same compound?
Its value is 180%.

And the “viability according to the live/dead staining” value [3]?
The value was “high rate of viability”.

For CCCCC/C=C\CC=C(CCCCCCCC(=O)O[C@H](COC(=O)CCCCCCCCCCCCCCC)COP(=O)([O-])OCC[N+](C)(C)C)[N+](=O)[O-] [Example P7, 1-palmitoyl-2-(9-nitrolinoleoyl)-sn-3-glycerophosphocholine], which “total viability (MTT assay)” value [1] is on record?
Its value is 75%.

What about the pEC50 ([1]; after 48 hours, range over cell lines, read-out: EC50 (MTT assay)) of the same compound?
The pEC50 was 2.41 to 3.40.

What about the “loss of viability of heart muscle cells after hypoxia” value (“loss” for short) ([4]; (10 minutes)) of the same compound?
The value was 5%.

And the “loss” value ([4]; (30 minutes))?
Its value is 18%.

What about the “mitochondrial NAD+ content” value ([4]; first printed value) of the same compound?
Its value is 3.6 nmol/mg protein.

What about the “mitochondrial NAD+ content” value ([4]; second printed value) of the same compound?
Its value is 3.1 nmol/mg protein.

What about the “end of diastole (ED) cytosolic calcium” value ([5]; after hypoxia) of the same compound?
Its value is 70 nmol/L.

What about the “post systolic (PS) cytosolic calcium” value ([5]; after hypoxia) of the same compound?
The value was 30 nmol.

And the “end of diastole (ED) cytosolic calcium” value ([5]; after hypoxia and stimulation with isoproterenol)?
The value was 100 nmol/L.

And the “end of diastole (ED) cytosolic calcium” value ([5]; normoxic conditions)?
Its value is 30 nmol/L.

What about the “post systolic (PS) cytosolic calcium” value ([5]; normoxic conditions) of the same compound?
The value was 10 nmol.

And the “inducible membrane channel activity of TRP channels” value (TRPV1, 2 and 4, TRPA1)?
The value was “significant decrease of inducible membrane channel activity”.

And the “biocompatibility of coated implants compared to natural PLs” value [6]?
Its value is “improved biocompatibility of implants several-fold”.

And the estradiol (ovarian tissue strips [7])?
The estradiol was 8.3 ng/mL.

What about the progesterone (ovarian tissue strips [7]) of the same compound?
Its progesterone is 0.4 ng/mL.

And the “rate of intact follicles relative to the control group” value (ovarian tissue strips [8])?
The value was 98%.

And the “increase in LDH versus normoxemia culture” value (cortical neurons; 10-minutes ischemia)?
Its value is 130 fold.

And the “viability of cortical cells measured after 24 hours” value (“viability of cortical cells” for short) (cortical neurons; 10-minutes ischemia)?
Its value is 70%.

What about the “increase in LDH versus normoxemia culture” value (cortical neurons; 30-minutes ischemia) of the same compound?
Its value is 290 fold.

What about the “viability of cortical cells” value (cortical neurons; 30-minutes ischemia) of the same compound?
Its value is 52%.

What does the source list for CCCCCCCC/C=C\CCCCCCCC(=O)O[C@H](COC(=O)CCCCCCCCCCCCCCC)COP(=O)([O-])OCC[N+](C)(C)C [POPC, 1-Palmitoyl-2-oleoyl-sn-glycero-3-PC, reference compound]?
viability as quantified by the MTT assay [1]: only slightly decreased; cell volume (increase in size to) [2]: 160%; viability according to the live/dead staining [3]: high rate of viability; proportion of trans-fatty acids ([9]; after heat treatment (60° C., three hours)): 80%; degree of transisomerization ([9]; coatings after 2 months): 95%; degree of transisomerization ([9]; top coating with PEG, after 2 month): 86%

With CCCCCCCC/C=C\CCCCCCCC(=O)O[C@H](COC(=O)CCCCCCCCCCCCCCCCC)COP(=O)([O-])OCC[N+](C)(C)C [SOPC, 1-Stearoyl-2-oleoyl-sn-glycero-3-PC, reference compound] as the compound, how does the “viability as quantified by the MTT assay” value [1] read?
Its value is “only slightly decreased”.

And the “cell volume (increase in size to)” value [2]?
Its value is 150%.

And the “viability according to the live/dead staining” value [3]?
The value was “high rate of viability”.

What about the “loss” value ([4]; (10 minutes)) of the same compound?
Its value is 14%.

And the “loss” value ([4]; (30 minutes))?
The value was 40%.

What about the “mitochondrial NAD+ content” value ([4]; first printed value) of the same compound?
The value was 3.0 nmol/mg protein.

What about the “mitochondrial NAD+ content” value ([4]; second printed value) of the same compound?
The value was 1.1 nmol/mg protein.

What about the “proportion of living cells relative to non-frozen control” value (sciatic nerve) of the same compound?
Its value is 26%.

And the “increase in LDH versus normoxemia culture” value (cortical neurons; 10-minutes ischemia)?
The value was 280 fold.

And the “viability of cortical cells” value (cortical neurons; 10-minutes ischemia)?
The value was 33%.

And the “increase in LDH versus normoxemia culture” value (cortical neurons; 30-minutes ischemia)?
Its value is 640 fold.

What about the “viability of cortical cells” value (cortical neurons; 30-minutes ischemia) of the same compound?
Its value is 0%.
